The assay has as its target T1, SMARCA2 (Homo sapiens, UniProt P51531).
T1 construct: endogenous in cells
Nature of the assay: SMARCA2 HiBiT degradation assay (cellular). Conditions: for Emax: A549, Emax = amount of residual protein remaining in the cell following compound treatment; for DC50: SMARCA2 HiBiT cells, luminescence readout, 11-point titration from 10 μM, 6 hours or 16 hours, read-out: HiBit A549 SMARCA2 IP. The format is cell-based. (In general: The HiBiT peptide binds its large partner to form an active luciferase.)

T1 sequence (P51531 whole entry): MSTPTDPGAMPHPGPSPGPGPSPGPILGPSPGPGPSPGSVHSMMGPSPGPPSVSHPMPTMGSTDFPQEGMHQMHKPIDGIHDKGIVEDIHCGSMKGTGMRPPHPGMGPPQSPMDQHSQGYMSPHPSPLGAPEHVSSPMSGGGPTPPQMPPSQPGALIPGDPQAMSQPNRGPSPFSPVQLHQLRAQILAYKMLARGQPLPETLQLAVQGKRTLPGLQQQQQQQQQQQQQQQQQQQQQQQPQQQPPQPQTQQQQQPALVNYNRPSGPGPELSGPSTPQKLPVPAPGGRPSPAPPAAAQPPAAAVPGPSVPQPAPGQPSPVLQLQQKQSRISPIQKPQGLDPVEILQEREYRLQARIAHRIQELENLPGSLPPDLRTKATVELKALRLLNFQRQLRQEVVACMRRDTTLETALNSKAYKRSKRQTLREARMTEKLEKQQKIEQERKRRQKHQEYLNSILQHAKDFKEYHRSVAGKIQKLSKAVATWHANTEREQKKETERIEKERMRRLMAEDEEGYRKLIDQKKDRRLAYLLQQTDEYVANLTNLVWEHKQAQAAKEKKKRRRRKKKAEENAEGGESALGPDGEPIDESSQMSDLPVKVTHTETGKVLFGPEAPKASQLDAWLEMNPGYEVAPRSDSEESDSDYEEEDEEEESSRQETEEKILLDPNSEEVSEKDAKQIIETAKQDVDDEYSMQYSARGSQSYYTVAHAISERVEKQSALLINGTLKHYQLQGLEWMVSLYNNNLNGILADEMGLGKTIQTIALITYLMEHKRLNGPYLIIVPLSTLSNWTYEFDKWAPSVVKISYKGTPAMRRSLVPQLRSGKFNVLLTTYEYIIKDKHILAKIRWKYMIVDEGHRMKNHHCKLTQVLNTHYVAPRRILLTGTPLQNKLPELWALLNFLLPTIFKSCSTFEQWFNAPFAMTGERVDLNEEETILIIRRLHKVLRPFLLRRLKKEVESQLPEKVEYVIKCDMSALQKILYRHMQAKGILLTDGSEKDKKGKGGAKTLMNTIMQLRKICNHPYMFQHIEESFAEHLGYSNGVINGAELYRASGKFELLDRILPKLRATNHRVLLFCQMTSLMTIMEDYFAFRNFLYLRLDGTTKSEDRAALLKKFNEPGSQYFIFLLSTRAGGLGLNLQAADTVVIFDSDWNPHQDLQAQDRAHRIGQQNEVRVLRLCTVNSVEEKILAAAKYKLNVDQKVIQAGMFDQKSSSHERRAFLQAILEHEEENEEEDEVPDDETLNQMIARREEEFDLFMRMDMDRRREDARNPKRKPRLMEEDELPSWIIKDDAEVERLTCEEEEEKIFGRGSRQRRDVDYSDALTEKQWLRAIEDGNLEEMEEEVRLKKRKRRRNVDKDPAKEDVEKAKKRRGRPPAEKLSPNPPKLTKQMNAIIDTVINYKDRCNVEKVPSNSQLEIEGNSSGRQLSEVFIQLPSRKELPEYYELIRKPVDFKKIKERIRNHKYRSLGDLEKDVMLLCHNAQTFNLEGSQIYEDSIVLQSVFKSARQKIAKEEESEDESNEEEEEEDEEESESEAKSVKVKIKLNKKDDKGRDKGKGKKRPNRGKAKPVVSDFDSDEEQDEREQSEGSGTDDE

Usually Emax stands for the greatest response seen or fitted, relative to the assay's reference. In the case of `Cc1ncsc1-c1ccc([C@H](C)NC(=O)[C@@H]2C[C@@H](O)CN2C(=O)[C@@H](NC(=O)CCCCCCCCCC(=O)N2CCN(CCOc3cccc(N4C5CCC4CN(c4cc(-c6ccccc6O)nnc4N)C5)c3)CC2)C(C)(C)C)cc1` [Example 37, (2S,4R)-1-[(2S)-2-[[11-[4-[2-[3-[3-[3-amino-6-(2-hydroxyphenyl)pyridazin-4-yl]-3,8-diazabicyclo[3.2.1]octan-8-yl]phenoxy]ethyl]piperazin-1-yl]-11-oxo-undecanoyl]amino]-3,3-dimethyl-butanoyl]-4-hydroxy-N-[(1S)-1-[4-(4-methylthiazol-5-yl)phenyl]ethyl]pyrrolidine-2-carboxamide], the maximum response (Emax) is 29% and the DC50 worked out at 73 nM.

Take `Cc1ncsc1-c1ccc([C@H](C)NC(=O)[C@@H]2C[C@@H](O)CN2C(=O)[C@@H](NC(=O)CCOCCC(=O)N(C)CC(COc2cc(-c3ccccc3O)nnc2N)c2ccccc2)C(C)(C)C)cc1` (mixture of isomers) [Example 49, rac-(2S,4R)-4-hydroxy-1-[rac-(2S)-2-[3-[3-[[3-[3-amino-6-(2-hydroxyphenyl)pyridazin-4-yl]oxy-2-phenyl-propyl]-methyl-amino]-3-oxo-propoxy]propanoylamino]-3,3-dimethyl-butanoyl]-N-[rac-(1S)-1-[4-(4-methylthiazol-5-yl)phenyl]ethyl]pyrrolidine-2-carboxamide]: the maximal response (Emax) stood at 60% and the DC50 came to 1660 nM.

`Cc1ncsc1-c1ccc([C@H](C)NC(=O)[C@@H]2C[C@@H](O)CN2C(=O)[C@@H](NC(=O)CCOCCOCCC(=O)N2CCN(c3ccc(N4CCCC(Oc5cc(-c6ccccc6O)nnc5N)C4)cc3)CC2)C(C)(C)C)cc1` (mixture of isomers) [Example 34, rac-(2S,4R)-4-hydroxy-1-[rac-(2S)-2-[3-[2-[3-[4-[4-[3-[3-amino-6-(2-hydroxyphenyl)pyridazin-4-yl]oxy-1-piperidyl]phenyl]piperazin-1-yl]-3-oxo-propoxy]ethoxy]propanoylamino]-3,3-dimethyl-butanoyl]-N-[rac-(1S)-1-[4-(4-methylthiazol-5-yl)phenyl]ethyl]pyrrolidine-2-carboxamide]: the maximal effect (Emax) came to 47% and the DC50 was determined as 1100 nM.

Take `Cc1ncsc1-c1ccc([C@H](C)NC(=O)[C@@H]2C[C@@H](O)CN2C(=O)[C@@H](NC(=O)CCCCCCCCC(=O)N2CCN(C(=O)c3cccc(OC4CN(c5cc(-c6ccccc6O)nnc5N)C4)c3)CC2)C(C)(C)C)cc1` [Example 101, (2S,4R)-1-[(2S)-2-[[10-[4-[3-[1-[3-amino-6-(2-hydroxyphenyl)pyridazin-4-yl]azetidin-3-yl]oxybenzoyl]piperazin-1-yl]-10-oxo-decanoyl]amino]-3,3-dimethyl-butanoyl]-4-hydroxy-N-[(1S)-1-[4-(4-methylthiazol-5-yl)phenyl]ethyl]pyrrolidine-2-carboxamide]: the Emax was 38% and the DC50 stood at 101 nM.

Turning to `Cc1ncsc1-c1ccc(CNC(=O)[C@@H]2C[C@@H](O)CN2C(=O)[C@@H](NC(=O)CCCCCCCCC(=O)N2CCN(CCOc3ccccc3N3C4CCC3CN(c3cc(-c5ccccc5O)nnc3N)C4)CC2)C(C)(C)C)cc1` [Example 55, (2S,4R)-1-[(2S)-2-[[10-[4-[2-[2-[3-[3-amino-6-(2-hydroxyphenyl)pyridazin-4-yl]-3,8-diazabicyclo[3.2.1]octan-8-yl]phenoxy]ethyl]piperazin-1-yl]-10-oxo-decanoyl]amino]-3,3-dimethyl-butanoyl]-4-hydroxy-N-[[4-(4-methylthiazol-5-yl)phenyl]methyl]pyrrolidine-2-carboxamide], the maximum response (Emax) was found to be 27% and the DC50 is 2580 nM.

For the molecule `Cc1ncsc1-c1ccc([C@H](C)NC(=O)[C@@H]2C[C@@H](O)CN2C(=O)[C@@H](NC(=O)CCCCCCCCCNC(=O)C(c2ccccc2)n2cc(-c3cc(-c4ccccc4O)nnc3N)cn2)C(C)(C)C)cc1` (mixture of isomers) [Example 88, rac-(2S,4R)-4-hydroxy-1-[rac-(2S)-2-[10-[[2-[4-[3-amino-6-(2-hydroxyphenyl)pyridazin-4-yl]pyrazol-1-yl]-2-phenyl-acetyl]amino]decanoylamino]-3,3-dimethyl-butanoyl]-N-[rac-(1S)-1-[4-(4-methylthiazol-5-yl)phenyl]ethyl]pyrrolidine-2-carboxamide], the Emax amounted to 29% and the DC50 was 423 nM.

Take `Cc1ncsc1-c1ccc(CNC(=O)[C@@H]2C[C@@H](O)CN2C(=O)[C@@H](NC(=O)CCCCCCCCC(=O)NCC(COc2cc(-c3ccccc3O)nnc2N)c2ccccc2)C(C)(C)C)cc1` (stereo partly drawn) [Example 50, N1-(3-((3-amino-6-(2-hydroxyphenyl)pyridazin-4-yl)oxy)-2-phenylpropyl)-N10-((S)-1-((2S,4R)-4-hydroxy-2-((4-(4-methylthiazol-5-yl)benzyl)carbamoyl)pyrrolidin-1-yl)-3,3-dimethyl-1-oxobutan-2-yl)decanediamide]: the maximum response (Emax) is 63% and the DC50 is 2150 nM.

`Cc1ncsc1-c1ccc([C@H](C)NC(=O)[C@@H]2C[C@@H](O)CN2C(=O)[C@@H](NC(=O)CCCCCC(=O)N2CCN(Cc3cccc(CCOc4cc(-c5ccccc5O)nnc4N)c3)CC2)C(C)(C)C)cc1` [Example 105, (2S,4R)-1-[(2S)-2-[[7-[4-[[3-[2-[3-amino-6-(2-hydroxyphenyl)pyridazin-4-yl]oxyethyl]phenyl]methyl]piperazin-1-yl]-7-oxo-heptanoyl]amino]-3,3-dimethyl-butanoyl]-4-hydroxy-N-[(1S)-1-[4-(4-methylthiazol-5-yl)phenyl]ethyl]pyrrolidine-2-carboxamide]: the Emax is 40% and the DC50 was determined as 923 nM.

Take `Cc1ncsc1-c1ccc([C@H](C)NC(=O)[C@@H]2C[C@@H](O)CN2C(=O)[C@@H](NC(=O)CCCCCC(=O)N2CCN(c3cccc(OC4CN(c5cc(-c6ccccc6O)nnc5N)C4)c3)CC2)C(C)(C)C)cc1` [Example 94, (2S,4R)-1-[(2S)-2-[[7-[4-[3-[1-[3-amino-6-(2-hydroxyphenyl)pyridazin-4-yl]azetidin-3-yl]oxyphenyl]piperazin-1-yl]-7-oxo-heptanoyl]amino]-3,3-dimethyl-butanoyl]-4-hydroxy-N-[(1S)-1-[4-(4-methylthiazol-5-yl)phenyl]ethyl]pyrrolidine-2-carboxamide]: the Emax came to 43% and the DC50 was 693 nM.

For the molecule `Cc1ncsc1-c1ccc(CNC(=O)[C@@H]2C[C@@H](O)CN2C(=O)[C@@H](NC(=O)CCCCCC(=O)N2C3CCC2CN(c2cc(-c4ccccc4O)nnc2N)C3)C(C)(C)C)cc1` [Example 85, (2S,4R)-1-[(2S)-2-[[7-[3-[3-Amino-6-(2-hydroxyphenyl)pyridazin-4-yl]-3,8-diazabicyclo[3.2.1]octan-8-yl]-7-oxo-heptanoyl]amino]-3,3-dimethyl-butanoyl]-4-hydroxy-N-[[4-(4-methylthiazol-5-yl)phenyl]methyl]pyrrolidine-2-carboxamide], the Emax amounted to 31% and the DC50 turned out to be 2190 nM.

As to `Cc1ncsc1-c1ccc([C@H](C)NC(=O)[C@@H]2C[C@@H](O)CN2C(=O)[C@@H](NC(=O)CCCCCCCCC(=O)N(C)CC(COc2cc(-c3ccccc3O)nnc2N)c2ccccc2)C(C)(C)C)cc1` (mixture of isomers) [Example 25, N′-[3-[3-amino-6-(2-hydroxyphenyl)pyridazin-4-yl]oxy-2-phenyl-propyl]-N′-methyl-N-[rac-(1S)-2,2-dimethyl-1-[rac-(2S,4R)-4-hydroxy-2-[[rac-(1S)-1-[4-(4-methylthiazol-5-yl)phenyl]ethyl]carbamoyl]pyrrolidine-1-carbonyl]propyl]decanediamide], the Emax stood at 19% and the DC50 is 348 nM.

In the case of `Cc1ncsc1-c1ccc(CNC(=O)[C@@H]2C[C@@H](O)CN2C(=O)[C@H](NC(=O)CCCCCCCCCOc2cccc(N3C4CCC3CN(c3cc(-c5ccccc5O)nnc3N)C4)c2)C(C)(C)C)cc1` [Example 20, (2S,4R)-1-[(2R)-2-[10-[3-[3-[3-amino-6-(2-hydroxyphenyl)pyridazin-4-yl]-3,8-diazabicyclo[3.2.1]octan-8-yl]phenoxy]decanoylamino]-3,3-dimethyl-butanoyl]-4-hydroxy-N-[[4-(4-methylthiazol-5-yl)phenyl]methyl]pyrrolidine-2-carboxamide], the maximal effect (Emax) came to 33% and the DC50 stood at 313 nM.

In the case of `Cc1ncsc1-c1ccc(CNC(=O)[C@@H]2C[C@H](O)CN2C(=O)[C@@H](NC(=O)CCCCCCCCCC(=O)N2CCC(Cc3cccc(N4C5CCC4CN(c4cc(-c6ccccc6O)nnc4N)C5)c3)CC2)C(C)(C)C)cc1` [Example 15, (2S,4S)-1-[(2S)-2-[[11-[4-[[3-[3-[3-amino-6-(2-hydroxyphenyl)pyridazin-4-yl]-3,8-diazabicyclo[3.2.1]octan-8-yl]phenyl]methyl]-1-piperidyl]-11-oxo-undecanoyl]amino]-3,3-dimethyl-butanoyl]-4-hydroxy-N-[[4-(4-methylthiazol-5-yl)phenyl]methyl]pyrrolidine-2-carboxamide], the maximum response (Emax) was determined as 24% and the DC50 was found to be 487 nM.

With `Cc1ncsc1-c1ccc([C@H](C)NC(=O)[C@@H]2C[C@@H](O)CN2C(=O)[C@@H](NC(=O)CCCCCCCCCCCCC(=O)N2CCN(CCOc3cccc(CCOc4cc(-c5ccccc5O)nnc4N)c3)CC2)C(C)(C)C)cc1` [Example 60, (2S,4R)-1-[(2S)-2-[[14-[4-[2-[3-[2-[3-amino-6-(2-hydroxyphenyl)pyridazin-4-yl]oxyethyl]phenoxy]ethyl]piperazin-1-yl]-14-oxo-tetradecanoyl]amino]-3,3-dimethyl-butanoyl]-4-hydroxy-N-[(1S)-1-[4-(4-methylthiazol-5-yl)phenyl]ethyl]pyrrolidine-2-carboxamide], the maximum response (Emax) was determined as 24% and the DC50 stood at 300 nM.

These data come from patent publication US20230002367A1, “BIFUNCTIONAL COMPOUNDS” (Hoffmann-La Roche Inc., priority 2019, published 2023).
